Reference: patent US5589483A, “Isoquinoline poly (ADP-ribose) polymerase inhibitors to treat skin diseases associated with cellular senescence” (priority 1994, dated 1996)

Experiments:
[1] = target: Poly (ADP-Ribose) Polymerase (PADPRP); settings: cited from earlier work; for IC50: PADPRP Inhibitors, Table 1
[2] = tested on: human fibroblast cells (W138 cells); assay: Extension of lifespan and proliferative capacity of human fibroblast cells in culture (cumulative population doublings); format: cell-based
From the text: At the time of subdivision, the media was aspirated, and the cells were rinsed with phosphate buffered saline (PBS) and then trypsinized. […] This process was repeated every ~7 days until the cells appeared to stop dividing.

human fibroblasts = settings: Rattan and Clark, 1994; cited from earlier work

SMILES	IC50 [1] [µM]	also measured
O=c1[nH]ncc2ccccc12 [1(2H)-Phthalazinone]	12	–
Oc1cccc2c(O)nccc12 [1,5-Dihydroxyisoquinoline]	–	proliferative lifespan (maximum achievable cumulative population doublings) ([2]; 100 μM (DMSO concentration 0.1%), W138 cells, FIG. 2): extension of their proliferative lifespan; proliferative capacity of treated cells ([2]; same procedure, FIG. 2, concentration not given): increased proliferative capacity
O=c1[nH][nH]c(=O)c2ccccc12 [2,3-Dihydro-1,4-phthalazinedione]	30	–
NC(=O)c1ccccc1O [2-Hydroxybenzamide]	82	–
O=c1[nH]c(S)nc2ccccc12 [2-Mercapto-4(3H)-quinazolinone]	44	–
COc1ccccc1C(N)=O [2-Methoxybenzamide]	20	–
Cc1cc(=O)c2ccccc2o1 [2-Methyl-1,4-benzopyrone]	45	–
O=c1[nH]c2ccc([N+](=O)[O-])cc2c2ccccc12 [2-Nitro-6(5H)-phenanthridinone]	0.35	–
O=c1[nH]c2ccccc2c2ccccc12 [2H-Benz[c]isoquinolin-1-one]	0.3	–
CC(=O)Nc1cccc(C(N)=O)c1 [3-Acetamidobenzamide]	12	–
NC(=O)c1cccc(N)c1 [3-Aminobenzamide]	–	lifespan of treated cells versus control cells ([2]; 10 μM 3-AB, FIG. 1): no effect; lifespan of treated cells versus control cells ([2]; 100 μM 3-AB, FIG. 1): longer lifespan than control cells; lifespan and proliferative capacity of treated cells ([2]; 1 mM 3-AB, FIG. 1): dramatic increase in lifespan and proliferative capacity; maximum achievable cumulative population doublings ([2]; 1 mM 3-AB, W138 cells, FIG. 1): significant increase; days in culture at which cells were still dividing ([2]; 1 mM 3-AB, control cells stopped dividing after about 40 days): > 60 days
Nc1cccc2c(=O)[nH][nH]c(=O)c12 [3-Aminophthalhydrazide]	23	–
NC(=O)c1cccc(F)c1 [3-Fluorobenzamide]	20	–
NC(=O)c1cccc(O)c1 [3-Hydroxybenzamide]	9.1	–
Cc1cccc(C(N)=O)c1 [3-Methylbenzamide]	19	–
O=c1[nH][nH]c(=O)c2c([N+](=O)[O-])cccc12 [3-Nitrophthalhydrazide]	72	–
Cc1cc(O)c2ccccc2n1 [4-Hydroxy-2-methylquinoline]	74	–
Oc1ccnc2ccccc12 [4-Hydroxyquinoline]	80	–
CC(=O)Nc1ccc(O)c(C(N)=O)c1 [5-Acetamidosalicylamide]	45	–
O=c1[nH]cc(I)c(=O)[nH]1 [5-Iodouracil]	71	–
O=c1[nH]c(=O)n([C@@H]2O[C@H](CO)[C@@H](O)[C@H]2O)cc1I [5-Iodouridine]	43	–
CCCCC/C=C\C/C=C\C/C=C\C/C=C\CCCC(=O)O [Arachidonic acid]	44	–
NC(=O)c1ccccc1 [Benzamide]	22	–
CCCCC/C=C\C/C=C\CCCCCCCC(=O)O [Linoleic acid]	48	–
NC(=O)c1cccnc1 [Nicotinamide]	210	–
CCCCCCCC/C=C\CCCCCCCC(=O)O [Oleic acid]	82	–
c1coc(CNc2ncnc3[nH]cnc23)c1 [kinetin]	–	PADPRP inhibition (in words) ([1]; Althaus and Richter, 1987): weak inhibitor; cell culture lifespan in terms of maximum proliferative capacity in vitro (human fibroblasts): not accompanied by an increase in cell culture lifespan; onset of aging characteristics (human fibroblasts): delay the onset of aging characteristics
NC(=O)c1cccc(C(N)=O)c1 [m-Phthalamide]	50	–
